Measurements as given in patent publication US11505575B2, “Cyclic polypeptides for PCSK9 inhibition” (Merck Sharp & Dohme LLC, priority 2018, dated 2022).
*1 amine or outer side, *2 acyl side, *3 side chain or, on linkers, in order; H or OH if unused. Where a SMILES comes first, the peptide text is derived from it. Bridges are numbered along the chain shown (N, C = ends). [ ]: non-standard residue; d: D form. Ala(benzothiazol-2-yl) = N[C@@H](Cc1nc2ccccc2s1)C(=O)O; Pro(trans-4-Ph) = O=C(O)[C@@H]1C[C@@H](c2ccccc2)CN1; Trp(7-aza) = N[C@@H](Cc1c[nH]c2ncccc12)C(=O)O; hAad = O=C([C@H](CCCCC(=O)[*:3])N[*:1])[*:2]; Phe(4-CH2NH2) = NCc1ccc(C[C@H](N)C(=O)O)cc1; Pro(4S-NH2) = N[C@@H]1CN[C@H](C(=O)O)C1; mXylylene = c1cc(C[*:1])cc(C[*:2])c1; d(aThr) = C[C@@H](O)[C@@H](N)C(=O)O; Aad = N[C@@H](CCCC(=O)O)C(=O)O; Cha = N[C@@H](CC1CCCCC1)C(=O)O; Chg = N[C@H](C(=O)O)C1CCCCC1; Tle = CC(C)(C)[C@H](N)C(=O)O; αMeV = CC(C)[C@](C)(N)C(=O)O; hLys = NCCCCC[C@H](N)C(=O)O; hSer = N[C@@H](CCO)C(=O)O; Dab = NCC[C@H](N)C(=O)O; Nva = CCC[C@H](N)C(=O)O; Aib = CC(C)(N)C(=O)O; Ahx = NCCCCCC(=O)O; GABA = NCCCC(=O)O; Mpa = O=C(O)CCS; Sar = CNCC(=O)O

The compounds below were run against human PCSK9 / human LDLR EGFa domain interaction (Homo sapiens, UniProt Q8NBP7) (assay: TR-FRET assay of inhibition of the PCSK9-LDLR protein-protein interaction). Settings: 20 nM biotinylated human PCSK9 + 20 nM his-tagged human LDLR EGFa domain, 2 hours room temperature.
Format: binding
Description: A time-resolved fluorescence resonance energy (TR-FRET) assay was used to measure inhibition of the PCSK9-LDLR protein-protein interaction. Briefly, 20 nM avitag-biotinylated human PCSK9 was incubated with 20 nM his-tagged human LDLR EGFa domain in the presence of 5 nM LANCE Ulight Streptavidin (Perkin Elmer) and 5 nM europium-Anti-6×His (Perkin Elmer) for 2 hours covered at room temperature in buffer containing 50 mM HEPES, 150 mM NaCl, 5 mM CaCl2, 0.01% BSA and 0.01% Surfactant P20. Compounds were tested in dose-response and concentrations giving half-maximal inhibition calculated using a 4-parameter fit equation.

Sequence of human PCSK9 / human LDLR EGFa domain interaction (Q8NBP7 153-692): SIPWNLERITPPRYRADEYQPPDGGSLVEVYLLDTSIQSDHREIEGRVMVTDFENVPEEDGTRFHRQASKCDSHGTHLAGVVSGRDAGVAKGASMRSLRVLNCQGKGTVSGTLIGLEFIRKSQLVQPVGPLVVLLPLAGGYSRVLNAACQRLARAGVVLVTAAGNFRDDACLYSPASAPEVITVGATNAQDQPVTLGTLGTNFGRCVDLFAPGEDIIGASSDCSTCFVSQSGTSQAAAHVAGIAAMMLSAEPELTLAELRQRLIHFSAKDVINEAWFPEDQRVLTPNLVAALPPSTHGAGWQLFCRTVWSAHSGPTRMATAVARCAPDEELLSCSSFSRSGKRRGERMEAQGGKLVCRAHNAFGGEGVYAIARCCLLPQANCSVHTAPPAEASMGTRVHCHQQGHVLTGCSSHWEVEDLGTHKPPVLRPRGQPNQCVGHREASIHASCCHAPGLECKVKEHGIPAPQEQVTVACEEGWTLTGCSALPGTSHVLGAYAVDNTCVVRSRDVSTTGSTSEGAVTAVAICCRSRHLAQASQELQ
Sequence of human PCSK9 / human LDLR EGFa domain interaction (Q8NBP7 31-152 partner limits assumed): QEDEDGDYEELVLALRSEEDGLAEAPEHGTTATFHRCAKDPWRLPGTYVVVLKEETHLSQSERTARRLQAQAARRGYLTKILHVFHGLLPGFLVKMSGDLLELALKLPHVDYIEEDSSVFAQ

Structure (SMILES)	IC50
CCC[C@@H]1NC(=O)[C@H](Cc2nc3ccccc3s2)NC(=O)[C@H]([C@@H](C)O)NC(=O)[C@H](Cc2cnc[nH]2)NC(=O)[C@H](Cc2ccc(O)cc2)NC(=O)[C@H](C(C)(C)C)NC(=O)CCSCc2cccc(c2)CSC[C@@H](C(N)=O)NC(=O)[C@H]([C@@H](C)O)NC(=O)[C@H](CCC)NC(=O)[C@H](Cc2ccc(O)cc2)NC(=O)[C@H](CCC(=O)O)NC1=O [Compound 084] ([Mpa][Tle]YHT[Ala(benzothiazol-2-yl)][Nva]EY[Nva]TC-NH2; linker 1-12 via mXylylene)	100 to 1000 nM
CCC[C@@H]1NC(=O)[C@H](Cc2c[nH]c3ncccc23)NC(=O)[C@H]([C@@H](C)O)NC(=O)[C@@H]2CCCCNC(=O)CC[C@@H](NC1=O)C(=O)N[C@@H](Cc1ccc(O)cc1)C(=O)N[C@@H](C1CCCCC1)C(=O)N[C@@H]([C@@H](C)O)C(=O)NCCCC(=O)NCCCCCC(=O)N[C@@H](C(C)(C)C)C(=O)N[C@@H](Cc1ccc(O)cc1)C(=O)N2 [Compound 117] (cyclo([Ahx][Tle]YKT[Trp(7-aza)][Nva][dE]Y[Chg]T[GABA]); lactam 4-8)	100 to 1000 nM
CCC[C@@H]1NC(=O)[C@H](Cc2c[nH]c3ncccc23)NC(=O)[C@H]([C@@H](C)O)NC(=O)[C@H](CCCCN)NC(=O)[C@H](Cc2ccc(O)cc2)NC(=O)[C@H](C(C)(C)C)NC(=O)CCSCc2cccc(c2)CSC[C@@H](C(N)=O)NC(=O)[C@H]([C@@H](C)O)NC(=O)[C@H](C2CCCCC2)NC(=O)[C@H](Cc2ccc(O)cc2)NC(=O)[C@H](CCC(=O)O)NC1=O [Compound 046] ([Mpa][Tle]YKT[Trp(7-aza)][Nva]EY[Chg]TC-NH2; linker 1-12 via mXylylene)	100 to 1000 nM
CCC[C@@H]1NC(=O)[C@H](Cc2ccc(O)cc2)NC(=O)[C@H](CCC(=O)O)NC(=O)[C@H](CCC)NC(=O)[C@H](Cc2c[nH]c3ncccc23)NC(=O)[C@H]([C@@H](C)O)NC(=O)[C@H](Cc2cnc[nH]2)NC(=O)[C@H](Cc2ccc(O)cc2)NC(=O)[C@H](C(C)(C)C)NC(=O)CCSCc2cccc(c2)CSC[C@@H](C(N)=O)NC(=O)[C@H](CCO)NC1=O [Compound 074] ([Mpa][Tle]YHT[Trp(7-aza)][Nva]EY[Nva][hSer]C-NH2; linker 1-12 via mXylylene)	100 to 1000 nM
CCC[C@@H]1NC(=O)[C@H](Cc2c[nH]c3ncccc23)NC(=O)[C@@H]([C@@H](C)O)NC(=O)[C@@H]2CCCCC(=O)NCC[C@H](NC1=O)C(=O)N[C@@H](Cc1ccc(O)cc1)C(=O)N[C@@H](C1CCCCC1)C(=O)N[C@@H]([C@@H](C)O)C(=O)N[C@H](C(N)=O)CSCc1cccc(c1)CSCCC(=O)N[C@@H](C(C)(C)C)C(=O)N[C@@H](Cc1ccc(O)cc1)C(=O)N2 [Compound 108] ([Mpa][Tle]Y[hAad][d(aThr)][Trp(7-aza)][Nva][Dab]Y[Chg]TC-NH2; linker 1-12 via mXylylene; lactam 4-8)	100 to 1000 nM
CCC[C@@H]1NC(=O)[C@H](Cc2c[nH]c3ncccc23)NC(=O)[C@H]([C@@H](C)O)NC(=O)[C@@H]2C[C@@H](c3ccccc3)CN2C(=O)[C@H](Cc2ccc(O)cc2)NC(=O)[C@H](C(C)(C)C)NC(=O)CCSCc2cccc(c2)CSC[C@@H](C(N)=O)NC(=O)[C@H]([C@@H](C)O)NC(=O)[C@H](CCC)NC(=O)[C@H](Cc2ccc(O)cc2)NC(=O)[C@H](CCC(=O)O)NC1=O [Compound 005] ([Mpa][Tle]Y[Pro(trans-4-Ph)]T[Trp(7-aza)][Nva]EY[Nva]TC-NH2; linker 1-12 via mXylylene)	1000 to 12100 nM
CCC[C@H](NC(C)=O)C(=O)N[C@H]1CSCc2cccc(c2)CSC[C@@H](C(N)=O)NC(=O)[C@H]([C@@H](C)O)NC(=O)[C@H](C2CCCCC2)NC(=O)[C@H](Cc2c[nH]c3ncccc23)NC(=O)[C@H](Cc2c[nH]cn2)NC(=O)[C@H](CCC(=O)O)NC(=O)[C@H](Cc2c[nH]c3ncccc23)NC(=O)[C@H]([C@@H](C)O)NC(=O)CN(C)C(=O)[C@H](Cc2ccc(O)cc2)NC(=O)[C@H](C(C)(C)C)NC1=O [Compound 007] (Ac-[Nva]C[Tle]Y[Sar]T[Trp(7-aza)]EH[Trp(7-aza)][Chg]TC-NH2; linker 2-13 via mXylylene)	1000 to 12100 nM
CCC[C@@H]1NC(=O)[C@H](Cc2c[nH]c3ncccc23)NC(=O)[C@H]([C@@H](C)O)NC(=O)[C@H](Cc2cnc[nH]2)NC(=O)[C@H](Cc2ccc(O)cc2)NC(=O)[C@H](C(C)(C)C)NC(=O)[C@@H](NC(=O)[C@H](CCCNC(=N)N)NC(C)=O)CSCc2cccc(c2)CSC[C@@H](C(N)=O)NC(=O)[C@H]([C@@H](C)O)NC(=O)[C@H](CCC)NC(=O)[C@H](Cc2ccc(O)cc2)NC(=O)[C@H](CCC(=O)O)NC1=O [Compound 050] (Ac-RC[Tle]YHT[Trp(7-aza)][Nva]EY[Nva]TC-NH2; linker 2-13 via mXylylene)	100 to 1000 nM
CCC[C@@H]1NC(=O)[C@H](Cc2ccc(O)cc2)NC(=O)[C@H](CCC(=O)O)NC(=O)[C@H](CC2CCCCC2)NC(=O)[C@H](Cc2c[nH]c3ncccc23)NC(=O)[C@H]([C@@H](C)O)NC(=O)[C@H](Cc2cnc[nH]2)NC(=O)[C@H](Cc2ccc(O)cc2)NC(=O)[C@H](C(C)(C)C)NC(=O)CCSCc2cccc(c2)CSC[C@@H](C(N)=O)NC(=O)[C@H]([C@@H](C)O)NC1=O [Compound 079] ([Mpa][Tle]YHT[Trp(7-aza)][Cha]EY[Nva]TC-NH2; linker 1-12 via mXylylene)	1000 to 12100 nM
CCC[C@@H]1NC(=O)[C@H](Cc2c[nH]c3ncccc23)NC(=O)[C@H]([C@@H](C)O)NC(=O)[C@H](CCC(=O)O)NC(=O)[C@H](Cc2ccc(O)cc2)NC(=O)[C@H](C(C)(C)C)NC(=O)CCSCc2cccc(c2)CSC[C@@H](C(N)=O)NC(=O)[C@H]([C@@H](C)O)NC(=O)[C@H](C2CCCCC2)NC(=O)[C@H](Cc2ccc(O)cc2)NC(=O)[C@H](CCCCN)NC1=O [Compound 047] ([Mpa][Tle]YET[Trp(7-aza)][Nva]KY[Chg]TC-NH2; linker 1-12 via mXylylene)	100 to 1000 nM
CCC[C@@H]1NC(=O)[C@H](Cc2c[nH]c3ncccc23)NC(=O)[C@H]([C@@H](C)O)NC(=O)[C@@H]2C[C@H](N)CN2C(=O)[C@H](Cc2ccc(O)cc2)NC(=O)[C@H](C(C)(C)C)NC(=O)CCSCc2cccc(c2)CSC[C@@H](C(N)=O)NC(=O)[C@H]([C@@H](C)O)NC(=O)[C@H](C2CCCCC2)NC(=O)[C@H](Cc2ccc(O)cc2)NC(=O)[C@H](CCCC(=O)O)NC1=O [Compound 010] ([Mpa][Tle]Y[Pro(4S-NH2)]T[Trp(7-aza)][Nva][Aad]Y[Chg]TC-NH2; linker 1-12 via mXylylene)	100 to 1000 nM
CCC[C@@H]1NC(=O)[C@H](Cc2c[nH]c3ncccc23)NC(=O)[C@H]([C@@H](C)O)NC(=O)[C@H](CCCCCN)NC(=O)[C@H](Cc2ccc(O)cc2)NC(=O)[C@H](C(C)(C)C)NC(=O)CCSCc2cccc(c2)CSC[C@@H](C(N)=O)NC(=O)[C@H]([C@@H](C)O)NC(=O)[C@H](CCC)NC(=O)[C@H](Cc2ccc(O)cc2)NC(=O)[C@H](CCC(=O)O)NC1=O [Compound 062] ([Mpa][Tle]Y[hLys]T[Trp(7-aza)][Nva]EY[Nva]TC-NH2; linker 1-12 via mXylylene)	100 to 1000 nM
CCC[C@@H]1NC(=O)[C@H](Cc2c[nH]c3ncccc23)NC(=O)[C@H]([C@@H](C)O)NC(=O)[C@H](Cc2cnc[nH]2)NC(=O)[C@H](Cc2ccc(O)cc2)NC(=O)[C@H](C(C)(C)C)NC(=O)[C@@H](NC(C)=O)CCC(=O)NCc2ccc(cc2)C[C@@H](C(N)=O)NC(=O)[C@H]([C@@H](C)O)NC(=O)[C@H](CCC)NC(=O)[C@H](Cc2ccc(O)cc2)NC(=O)[C@H](CCC(=O)O)NC1=O [Compound 013] (Ac-E[Tle]YHT[Trp(7-aza)][Nva]EY[Nva]T[Phe(4-CH2NH2)]-NH2; lactam 1-12)	100 to 1000 nM
CCC[C@@H]1NC(=O)[C@H](Cc2c[nH]c3ncccc23)NC(=O)[C@H]([C@@H](C)O)NC(=O)[C@@H]2CCCCNC(=O)CC[C@H](NC1=O)C(=O)N[C@@H](Cc1ccc(O)cc1)C(=O)NC(C)(C)C(=O)N[C@@H]([C@@H](C)O)C(=O)N[C@H](C(N)=O)CSCc1cccc(c1)CSCCC(=O)N[C@@H](C(C)(C)C)C(=O)N[C@@H](Cc1ccc(O)cc1)C(=O)N2 [Compound 114] ([Mpa][Tle]YKT[Trp(7-aza)][Nva]EY[Aib]TC-NH2; linker 1-12 via mXylylene; lactam 4-8)	100 to 1000 nM
CCC[C@@H]1NC(=O)[C@H](Cc2c[nH]c3ncccc23)NC(=O)[C@H]([C@@H](C)O)NC(=O)[C@H](Cc2cnc[nH]2)NC(=O)[C@H](Cc2ccc(O)cc2)NC(=O)[C@H](C(C)(C)C)NC(=O)CCSCc2cccc(c2)CSC[C@@H](C(N)=O)NC(=O)[C@H]([C@@H](C)O)NC(=O)[C@H](CCO)NC(=O)[C@H](Cc2ccc(O)cc2)NC(=O)[C@H](CCC(=O)O)NC1=O [Compound 072] ([Mpa][Tle]YHT[Trp(7-aza)][Nva]EY[hSer]TC-NH2; linker 1-12 via mXylylene)	100 to 1000 nM
CC(C)[C@]1(C)NC(=O)[C@H](Cc2ccc(O)cc2)NC(=O)[C@H](CCC(=O)O)NC(=O)C(C)(C)NC(=O)[C@H](Cc2c[nH]c3ncccc23)NC(=O)[C@H]([C@@H](C)O)NC(=O)[C@H](CCCCN)NC(=O)[C@H](Cc2ccc(O)cc2)NC(=O)[C@H](C(C)(C)C)NC(=O)CCSCc2cccc(c2)CSC[C@H](C(N)=O)NC(=O)[C@H]([C@@H](C)O)NC1=O [Compound 077] ([Mpa][Tle]YKT[Trp(7-aza)][Aib]EY[αMeV]T[dC]-NH2; linker 1-12 via mXylylene)	100 to 1000 nM
CCC[C@H](NC(C)=O)C(=O)N[C@H]1CSCc2cccc(c2)CSC[C@@H](C(N)=O)NC(=O)[C@H]([C@@H](C)O)NC(=O)[C@H](C2CCCCC2)NC(=O)[C@H](Cc2c[nH]c3ncccc23)NC(=O)[C@H](Cc2cnc[nH]2)NC(=O)[C@H](CCC(=O)O)NC(=O)[C@H](Cc2c[nH]c3ncccc23)NC(=O)[C@H]([C@@H](C)O)NC(=O)[C@H]2CCCN2C(=O)[C@H](Cc2ccc(O)cc2)NC(=O)[C@H](C(C)(C)C)NC1=O [Compound 001] (Ac-[Nva]C[Tle]Y[dP]T[Trp(7-aza)]EH[Trp(7-aza)][Chg]TC-NH2; linker 2-13 via mXylylene)	1000 to 12100 nM
